# Measured values: patent US5188955A, “Method of preserving arylacylamidase in aqueous solution” (GDS Technology, Inc., priority 1992, dated 1993)
# “Also recorded” adds a separate entry of the source. Like-named read-outs stand apart in the source and are kept apart here.
# Key:
# Assay type in all cases: biochemical
# arylacylamidase = test: General findings on effect of stabilizers on arylacylamidase
# [1] = tested on: arylacylamidase E.C. 3.5.1.13; test: Stability of aqueous arylacylamidase solution at 37° C. with or without o-cresol (Example 1); details: for Remaining enzyme activity: 37° C.
# Protocol: (§1) Arylacylamidase enzyme was dissolved in water containing 50 mM borate buffer at various pH's at widely different concentrations of between 1 and 1500 U/L in the presence of between 1 and 12 mM o-cresol. The same solution of enzyme in buffer was prepared without o-cresol. Both sets of solutions were maintained at 37° C. for a period of two weeks. The enzyme activity was measured at the beginning of the period, as well as at certain times during the two week period. The enzyme activity was determined by a method which uses 50 mM Tris.HCl, pH 8.5, and 1 mM paranitroacetanilide as the enzyme substrate. In the presence of arylacylamidase, the p.nitroacetanilide is hydrolyzed to p-nitroaniline which absorbs at 405 nm. The kinetic assay was performed at 30° C. and 405 nm. One unit of enzyme activity is defined as 1 μ mole of p.nitroaniline formed using p-nitroacetanilide as a substrate at 30° C.
# [2] = tested on: arylacylamidase E.C. 3.5.1.13; test: Stability of arylacylamidase dried on paper strips with or without o-cresol (Example 2); details: 37° C., two weeks
# Protocol: as §1
# Two arylacylamidase aqueous solutions of 100 U/L were prepared in water containing 50 mM borate buffer, pH 8.0, one in the presence of 10 mM o-cresol and one in the absence of o-cresol. Whatman 54 and Whatman 3MM paper strips (2"×12") were impregnated with these solutions and dried. The dried paper strips were stored at 37° C. for two weeks. […] The enzyme activity was measured using the assay described in Example 1.
# [3] = tested on: arylacylamidase E.C. 3.5.1.13; details: 10 mM Tris-HCl pH 7.0
# Protocol: as §1
# An aqueous solutiOn of arylacylamidase, from about 100-200 U/mL, in 10 mM Tris-HCl buffer, which was maintained at pH 7.0, was lyophilized in the presence of various amounts of sodium benzoate and in the absence of sodium benzoate. After lyophilization, the enzyme samples were dissolved in deionized water to make an aqueous enzyme solution of 100 U/mL of water, and assayed for enzyme activity using the assay described in Example 1.
# [4] = tested on: arylacylamidase E.C. 3.5.1.13; details: Arylacylamidase 21.6 U/mL with 1 mg/mL sodium benzoate, 10 mM Tris-HCl pH 7.0
# Protocol: as §1
# The arylacylamidase was dissolved in an aqueous buffer, such as in 10 mM Tris-HCl, pH 7.0, in the presence of 1 mg/ml sodium benzoate and in the absence of sodium benzoate.
# The samples were maintained at 4° C., room temperature, and 37° C. The residual activity was determined using the enzyme assay described in Example 1.
# [5] = tested on: arylacylamidase E.C. 3.5.1.13; details: 37° C., two weeks
compound,measurement,setting,value
O=C(O)c1ccccc1 [benzoic acid],use as substrate / inhibition of arylacylamidase activity,arylacylamidase,neither compound is used by the enzyme as a substrate nor causes inhibition of the activity of arylacylamidase
Cc1ccccc1O [o-cresol],Remaining enzyme activity,"[1]; pH 8.0, 2.8 mM o-cresol, 0 HRS",13.6 U/ML
same,Remaining enzyme activity,"[1]; pH 8.0, 2.8 mM o-cresol, 3 DAYS",13.6 U/ML
same,Remaining enzyme activity,"[1]; pH 8.0, 2.8 mM o-cresol, 5 HRS",13.5 U/ML
same,Remaining enzyme activity,"[1]; pH 8.0, 2.8 mM o-cresol, 7 DAYS",12.3 U/ML
same,Remaining enzyme activity,"[1]; pH 8.0, 2.8 mM o-cresol, 14 DAYS",11.8 U/ML
same,Remaining enzyme activity,"[1]; pH 8.0, 4.2 mM o-cresol, 0 HRS",6.25 U/ML
same,Remaining enzyme activity,"[1]; pH 8.0, 4.2 mM o-cresol, 3 DAYS",6.20 U/ML
same,Remaining enzyme activity,"[1]; pH 8.0, 4.2 mM o-cresol, 5 HRS",6.16 U/ML
same,Remaining enzyme activity,"[1]; pH 8.0, 4.2 mM o-cresol, 7 DAYS",5.66 U/ML
same,Remaining enzyme activity,"[1]; pH 8.0, 4.2 mM o-cresol, 14 DAYS",5.36 U/ML
same,activity of aqueous solution of arylacylamidase maintained,"[1]; pH 8.0, 14 days at 37° C., 2.8 mM o-cresol",over 80%
same,Remaining enzyme activity,"[1]; pH 9.0, 2.2 mM o-cresol, 0 HRS",13.6 U/ML
same,Remaining enzyme activity,"[1]; pH 9.0, 2.2 mM o-cresol, 3 DAYS",11.2 U/ML
same,Remaining enzyme activity,"[1]; pH 9.0, 2.2 mM o-cresol, 5 HRS",13.7 U/ML
same,Remaining enzyme activity,"[1]; pH 9.0, 2.2 mM o-cresol, 7 DAYS",9.26 U/ML
same,Remaining enzyme activity,"[1]; pH 9.0, 2.2 mM o-cresol, 14 DAYS",5.44 U/ML
same,Remaining enzyme activity,"[1]; pH 9.0, 3.75 mM o-cresol, 0 HRS",6.15 U/ML
same,Remaining enzyme activity,"[1]; pH 9.0, 3.75 mM o-cresol, 3 DAYS",5.03 U/ML
same,Remaining enzyme activity,"[1]; pH 9.0, 3.75 mM o-cresol, 5 HRS",6.20 U/ML
same,Remaining enzyme activity,"[1]; pH 9.0, 3.75 mM o-cresol, 7 DAYS",4.16 U/ML
same,Remaining enzyme activity,"[1]; pH 9.0, 3.75 mM o-cresol, 14 DAYS",2.36 U/ML
same,Residual Activity (Recovery),"[2]; Strips of Whatman 3 MM, 10 mM o-cresol",40%
same,Residual Activity (Recovery),"[2]; Strips of Whatman 54, 10 mM o-cresol",70%
same,use as substrate / inhibition of arylacylamidase activity,arylacylamidase,neither compound is used by the enzyme as a substrate nor causes inhibition of the activity of arylacylamidase
same,effect on stability of the enzyme,arylacylamidase; 10-100 mg/ml of ortho-cresol,enhances the stability of the enzyme
same,effect on the enzyme,"arylacylamidase; higher concentrations of ortho-cresol, on the order of about 1%",inactivate the enzyme and make it unstable
same,effect on stability of arylacylamidase,arylacylamidase; o-cresol concentrations above about 0.5%,specifically destabilizes arylacylamidase; also recorded: act to destabilize the arylacylamidase enzyme
O=C(O)c1ccccc1 [sodium benzoate],% Recovery After Lyophilization,[3]; 1 mM sodium benzoate,75%
same,% Recovery After Lyophilization,[3]; 5 mM sodium benzoate,95%
same,% Recovery After Lyophilization,[3]; 10 mM sodium benzoate,104%
same,Remaining Activity at 4° C. (8 days),[4],80%
same,Remaining Activity at 37° C. (1 day),[4],85%
same,Remaining Activity at 37° C. (4 days),[4],30%
same,Remaining Activity at Room Temp (8 days),[4],71%
same,Residual Activity (Recovery),"[5]; Strips of Whatman 3 MM, 10 mM sodium benzoate",70%
same,Residual Activity (Recovery),"[5]; Strips of Whatman 54, 10 mM sodium benzoate",85%
